{
  "source": "PubChem BioAssay AID651563",
  "about": "(Sanford-Burnham Center for Chemical Genomics, 2012)",
  "note": "The source made the active and inactive calls.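 The calls were made as follows: active = compounds whose IC50 is 20 micromolar or lower, counted as confirmed SKN-1 reporter blockers; inactive = the rest.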",
  "data": [
    {"system": "C. elegans VP596 Pgst-4::GFP/RFP ratio, acrylamide, 24 h", "test": "C. elegans gst-4 reporter suppression, concentration series – whole organism, GFP/RFP fluorescence ratio, set 2, strain VP596, SKN-1 inhibitor project, dose response (AID 651563);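 also: red signal is driven by the dop-3 promoter and serves as the normalizer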", "values": [
      {"smiles": "Cc1ccc2nc(-c3ccc(NC(=S)NC4CC(C)(C)NC(C)(C)C4)cc3)sc2c1", "IC50": "15.9 µM"},
      {"smiles": "CCCCCNC(=O)c1ccccc1SC", "IC50": "81.5 µM (inactive)"},
      {"smiles": "CCOC(=O)c1c(-c2ccc(-c3ccccc3)cc2)csc1NC(=O)CNCCN(C)C", "IC50": "10.9 µM"},
      {"smiles": "Cc1cc(-c2nc3cc(F)ccc3s2)ccc1N", "IC50": "18.3 µM"},
      {"smiles": "Clc1ccc(-c2nnc(SCc3ccon3)o2)c(Cl)c1", "IC50": "> 100 µM (inactive)"},
      {"smiles": "CC1=NOC(=O)/C1=C/c1ccc(-c2ccc(Cl)cc2)o1", "IC50": "> 100 µM (inactive)"},
      {"smiles": "O=C(C=Cc1cccs1)c1ccc(Cl)s1", "IC50": "17.7 µM"},
      {"smiles": "COc1ccc2c(c1OC)C(=O)OC2Nc1nc(-c2ccc(-c3ccccc3)cc2)cs1", "note": "(stereo unspecified)", "IC50": "33.8 µM (inactive)"},
      {"smiles": "O=[N+]([O-])c1ccc(Nc2ccccc2)c2nonc12", "IC50": "49.6 µM (inactive)"},
      {"smiles": "O=C(Nc1ccc(SC(F)F)cc1)c1ccccc1F", "IC50": "20.3 µM (inactive)"},
      {"smiles": "O=C(Nc1ccc(-c2nnc(-c3ccccc3)o2)cc1)c1ccc(Br)o1", "IC50": "> 100 µM (inactive)"},
      {"smiles": "CC/C(=C\\c1ccc(Cl)cc1)c1ccncc1", "IC50": "28.2 µM (inactive)"},
      {"smiles": "Cc1ccc(-c2noc(-c3cccs3)n2)cc1", "IC50": "12.4 µM"},
      {"smiles": "Cc1c(N2C(=O)/C(=C\\c3ccc(N(C)C)cc3)N(C)C2=S)c(=O)n(-c2ccccc2)n1C", "IC50": "16.9 µM"},
      {"smiles": "O=c1cc(-c2ccc(F)cc2)oc2ccccc12", "IC50": "19.2 µM"},
      {"smiles": "COc1cc(CNC(C)(C)CO)cc(Br)c1OCc1ccc(Cl)cc1", "IC50": "19.7 µM"}
    ]}
  ]
}
